Where “and” joins values, the source holds several entries; their conditions need not be identical. Equal entries are not always repeated. Inconclusive results and toxic doses are left out. Rule for the calls: active = survival T/C of 150% or more; inactive = T/C below 125% in these data.
System: CD2F1 mice, L1210 leukemia ip, survival T/C
Assay: NCI In Vivo Anticancer Drug Screen. Data for tumor model L1210 Leukemia (intraperitoneal) in CD2F1 (CDF1) mice
Conditions: higher = longer survival
Summary of the method: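 Each value reflects a quotient of treated over vehicle control outcomes in mice with a transplanted tumor.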

[1] = endpoint: mean survival time, dose: 100.0 mg/kg/injection, schedule: Q04DX003 (ip), vehicle: saline with Tween-80
[2] = endpoint: mean survival time, dose: 200.0 mg/kg/injection, schedule: Q04DX003 (ip), vehicle: saline with Tween-80
[3] = endpoint: mean survival time, dose: 400.0 mg/kg/injection, schedule: Q04DX003 (ip), vehicle: saline with Tween-80
[4] = endpoint: mean survival time, dose: 100.0 mg/kg/injection, schedule: Q01DX009 (ip), vehicle: saline with Tween-80
[5] = endpoint: mean survival time, dose: 200.0 mg/kg/injection, schedule: Q01DX009 (ip), vehicle: saline with Tween-80
[6] = endpoint: mean survival time, dose: 400.0 mg/kg/injection, schedule: Q01DX009 (ip), vehicle: saline with Tween-80
[7] = endpoint: mean survival time, dose: 25.0 mg/kg/injection, schedule: Q01DX009 (ip), vehicle: saline with Tween-80
[8] = endpoint: mean survival time, dose: 50.0 mg/kg/injection, schedule: Q01DX009 (ip), vehicle: saline with Tween-80
[9] = endpoint: mean survival time, dose: 100.0 mg/kg/injection, schedule: Q04DX003 (ip), vehicle: saline
[10] = endpoint: mean survival time, dose: 200.0 mg/kg/injection, schedule: Q04DX003 (ip), vehicle: saline
[11] = endpoint: mean survival time, dose: 100.0 mg/kg/injection, schedule: Q01DX001 (ip), vehicle: saline
[12] = endpoint: mean survival time, dose: 200.0 mg/kg/injection, schedule: Q01DX001 (ip), vehicle: saline
[13] = endpoint: mean survival time, dose: 100.0 mg/kg/injection, schedule: Q04DX002 (ip), vehicle: saline with Tween-80

Measured: T/C

OCC1OC(n2cnc3c(NCCc4ccc(O)c(O)c4)ncnc32)C(O)C1O (stereo not given)
inactive: endpoint: mean survival time, dose: 12.5 mg/kg/injection, schedule: Q01DX005 (ip), vehicle: saline with Tween-80 104 % of control | endpoint: mean survival time, dose: 25.0 mg/kg/injection, schedule: Q01DX005 (ip), vehicle: saline with Tween-80 109 % of control | endpoint: mean survival time, dose: 50.0 mg/kg/injection, schedule: Q01DX005 (ip), vehicle: saline with Tween-80 116 % of control

C[N+](C)(C)CC(=O)N/N=C\c1c(O)ccc2ccccc12
inactive: [1] 97 % of control

O=c1[nH]c(SCc2ccccc2)nc(Cc2ccccc2)c1CCO
inactive: [1] 95 % of control | [2] 94 % of control | [3] 90 % of control

CC(CCOP(N)(=O)N(CCCl)CCCl)OCc1ccccc1 (stereo not given)
inactive: endpoint: mean survival time, dose: 25.0 mg/kg/injection, schedule: Q01DX001 (ip), vehicle: other 98 % of control | endpoint: mean survival time, dose: 50.0 mg/kg/injection, schedule: Q01DX001 (ip), vehicle: other 101 % of control | endpoint: mean survival time, dose: 100.0 mg/kg/injection, schedule: Q01DX001 (ip), vehicle: other 106 % of control | endpoint: mean survival time, dose: 200.0 mg/kg/injection, schedule: Q01DX001 (ip), vehicle: other 115 % of control | endpoint: mean survival time, dose: 500.0 mg/kg/injection, schedule: Q01DX001 (ip), vehicle: other 118 % of control

O=C1CC2C=CC1CC2 (stereo not given)
inactive: endpoint: mean survival time, dose: 100.0 mg/kg/injection, schedule: Q04DX003 (ip), vehicle: other 105 % of control | endpoint: mean survival time, dose: 200.0 mg/kg/injection, schedule: Q04DX003 (ip), vehicle: other 101 % of control | endpoint: mean survival time, dose: 400.0 mg/kg/injection, schedule: Q04DX003 (ip), vehicle: other 100 % of control

O=[N+]([O-])c1cc(S(=O)(=O)c2ccc(N3CCCC3)c([N+](=O)[O-])c2)ccc1N1CCCC1
inactive: [4] 102 % of control | [5] 95 % of control | [6] 104 % of control

C[n+]1cccc(C(=S)[S-])c1
inactive: [7] 102 % of control | [8] 101 % of control | [1] 101 % of control

CC(C)(O)CCC1CC1CCC(C)(C)O (stereo not given)
inactive: [1] 97 % of control | [2] 89 % of control | [3] 97 % of control

CC(=O)Nc1ccc(F)cc1
inactive: [9] 105 % of control | [10] 100 % of control | endpoint: mean survival time, dose: 400.0 mg/kg/injection, schedule: Q04DX003 (ip), vehicle: saline 95 % of control

CN(C)CCNC(=O)C(c1ccccc1)c1ccccc1
inactive: [1] 104 % of control

C=CCOC(OCC=C)C(OCC=C)OCC=C
inactive: [1] 102 % of control | [2] 96 % of control | [3] 96 % of control

O=C(O)c1c[nH]c2c(Cl)cccc2c1=O
inactive: [11] 102 % of control | [12] 100 % of control

[NH-]S(=O)(=O)O.[NH-]S(=O)(=O)O.[NH2-].[NH2-].[Pt+4]
inactive: endpoint: mean survival time, dose: 10.0 mg/kg/injection, schedule: Q04DX003 (ip), vehicle: saline with Tween-80 95 % of control | endpoint: mean survival time, dose: 20.0 mg/kg/injection, schedule: Q04DX003 (ip), vehicle: saline with Tween-80 97 % of control | endpoint: mean survival time, dose: 40.0 mg/kg/injection, schedule: Q04DX003 (ip), vehicle: saline with Tween-80 97 % of control

Nc1nc(N)c(-c2ccc(Cl)c(Cl)c2)c(CBr)n1
inactive: endpoint: mean survival time, dose: 12.5 mg/kg/injection, schedule: Q01DX009 (ip), vehicle: saline with Tween-80 102 % of control | [7] 105 % of control

CCCCCCCCCCCCCCCCSc1cccc(C)c1
inactive: endpoint: mean survival time, dose: 100.0 mg/kg/injection, schedule: Q04DX003 (ip), vehicle: Klucel (hydroxypropylcellulose) (HPC) 95 % of control | endpoint: mean survival time, dose: 200.0 mg/kg/injection, schedule: Q04DX003 (ip), vehicle: Klucel (hydroxypropylcellulose) (HPC) 92 % of control | endpoint: mean survival time, dose: 400.0 mg/kg/injection, schedule: Q04DX003 (ip), vehicle: Klucel (hydroxypropylcellulose) (HPC) 98 % of control

COc1cccc2c1CCC1(O)OC(=O)CC21 (stereo not given)
inactive: [11] 98 % of control | [12] 98 % of control | endpoint: mean survival time, dose: 400.0 mg/kg/injection, schedule: Q01DX001 (ip), vehicle: saline 95 % of control

CN(C)CCCNC(CC#N)CCC#N (stereo not given)
inactive: [9] 96 % of control | [10] 95 % of control

O=C(Cc1ccccn1)Cc1ccccn1
inactive: endpoint: mean survival time, dose: 100.0 mg/kg/injection, schedule: Q01DX001 (ip), vehicle: saline with Tween-80 106 % of control | [13] 100 % of control | endpoint: mean survival time, dose: 200.0 mg/kg/injection, schedule: Q01DX001 (ip), vehicle: saline with Tween-80 96 % of control | endpoint: mean survival time, dose: 200.0 mg/kg/injection, schedule: Q04DX002 (ip), vehicle: saline with Tween-80 100 % of control | endpoint: mean survival time, dose: 400.0 mg/kg/injection, schedule: Q01DX001 (ip), vehicle: saline with Tween-80 106 % of control | endpoint: mean survival time, dose: 400.0 mg/kg/injection, schedule: Q04DX002 (ip), vehicle: saline with Tween-80 104 % of control

OCC(O)c1ccccc1 (stereo not given)
inactive: endpoint: mean survival time, dose: 100.0 mg/kg/injection, schedule: Q04DX002 (ip), vehicle: saline 97 % of control | endpoint: mean survival time, dose: 200.0 mg/kg/injection, schedule: Q04DX002 (ip), vehicle: saline 101 % of control | endpoint: mean survival time, dose: 400.0 mg/kg/injection, schedule: Q04DX002 (ip), vehicle: saline 104 % of control

NC(=S)c1ccc(OCCCc2ccccc2)cc1
inactive: [7] 95 % of control | [8] 95 % of control

[Cl][Pt+2][Cl].[NH-]c1ccccc1[NH-]
inactive: endpoint: mean survival time, dose: 1.25 mg/kg/injection, schedule: Q01DX009 (ip), vehicle: saline with Tween-80 120 % of control | endpoint: mean survival time, dose: 10.0 mg/kg/injection, schedule: Q01DX009 (ip), vehicle: saline with Tween-80 100 % of control

CCn1c(COc2ccc(Br)cc2)c(COC(=O)c2cccc(Cl)c2)c2ccccc21
inactive: [4] 94 % of control | [5] 92 % of control | [6] 94 % of control

CN(C)c1ccc(N=Nc2ccc(S(=O)(=O)O)cc2)cc1.CN(C)c1ccc(N=Nc2ccc(S(=O)(=O)O)cc2)cc1.O.O.[NH-]C1CCCCC1[NH-].[Pt+2]
inactive: endpoint: median survival time, dose: 3.12 mg/kg/injection, schedule: Q04DX003 (ip), vehicle: saline 96 % of control | endpoint: median survival time, dose: 6.25 mg/kg/injection, schedule: Q04DX003 (ip), vehicle: saline 106 % of control | endpoint: median survival time, dose: 12.5 mg/kg/injection, schedule: Q04DX003 (ip), vehicle: saline 101 % of control | endpoint: median survival time, dose: 25.0 mg/kg/injection, schedule: Q04DX003 (ip), vehicle: saline 100 % of control | endpoint: median survival time, dose: 50.0 mg/kg/injection, schedule: Q04DX003 (ip), vehicle: saline 98 % of control | endpoint: median survival time, dose: 100.0 mg/kg/injection, schedule: Q04DX003 (ip), vehicle: saline 105 % of control | endpoint: median survival time, dose: 200.0 mg/kg/injection, schedule: Q04DX003 (ip), vehicle: saline 115 % of control

O=C(O)CC(=O)O.[NH-]C1CCCCC1[NH-].[Pt+2] (stereo not given)
inactive: endpoint: mean survival time, dose: 1.25 mg/kg/injection, schedule: Q01DX009 (ip), vehicle: saline sonified 110 % of control | endpoint: mean survival time, dose: 2.5 mg/kg/injection, schedule: Q01DX009 (ip), vehicle: saline sonified 119 % of control | endpoint: mean survival time, dose: 10.0 mg/kg/injection, schedule: Q01DX001 (ip), vehicle: suspension in saline 124 % of control | endpoint: mean survival time, dose: 10.0 mg/kg/injection, schedule: Q01DX009 (oral), vehicle: saline 98 % of control | endpoint: mean survival time, dose: 20.0 mg/kg/injection, schedule: Q01DX001 (oral), vehicle: saline 98 % of control | endpoint: mean survival time, dose: 20.0 mg/kg/injection, schedule: Q01DX009 (oral), vehicle: saline 109 % of control | endpoint: mean survival time, dose: 40.0 mg/kg/injection, schedule: Q01DX001 (oral), vehicle: saline 98 % of control | endpoint: mean survival time, dose: 40.0 mg/kg/injection, schedule: Q01DX009 (oral), vehicle: saline 100 % of control | endpoint: mean survival time, dose: 80.0 mg/kg/injection, schedule: Q01DX001 (oral), vehicle: saline 100 % of control | endpoint: mean survival time, dose: 160.0 mg/kg/injection, schedule: Q01DX001 (oral), vehicle: saline 100 % of control | endpoint: mean survival time, dose: 320.0 mg/kg/injection, schedule: Q01DX001 (oral), vehicle: saline 100 % of control | endpoint: mean survival time, dose: 320.0 mg/kg/injection, schedule: Q01DX009 (oral), vehicle: saline 120 % of control | endpoint: median survival time, dose: 4.0 mg/kg/injection, schedule: Q01DX009 (ip), vehicle: dextrose 110 % of control

CC(C)(C)c1ccc(SC(=O)c2ccc(C(=O)Sc3ccc(C(C)(C)C)cc3)cc2)cc1
inactive: endpoint: mean survival time, dose: 25.0 mg/kg/injection, schedule: Q04DX002 (ip), vehicle: saline with Tween-80 91 % of control | endpoint: mean survival time, dose: 50.0 mg/kg/injection, schedule: Q04DX002 (ip), vehicle: saline with Tween-80 87 % of control | [13] 91 % of control and 102 % of control

NC(=O)C1=C(N)CCC1
inactive: [4] 104 % of control | [5] 104 % of control | [6] 106 % of control

O=[As](O)(CC(O)c1ccccc1)c1cccc(Cl)c1 (stereo not given)
inactive: endpoint: mean survival time, dose: 6.25 mg/kg/injection, schedule: Q04DX003 (ip), vehicle: saline with Tween-80 104 % of control | endpoint: mean survival time, dose: 12.5 mg/kg/injection, schedule: Q04DX003 (ip), vehicle: saline with Tween-80 119 % of control

Reference: PubChem BioAssay AID256 (DTP/NCI, 2004)
